Tests used:
Rattus norvegicus [1] = assay: Antiallodynic activity in rat spinal nerve ligation model of neuropathic pain assessed as reversal of allodynia at 10 mg/kg, po after 4 hrs; type: functional
Rattus norvegicus [2] = assay: Antiallodynic activity in rat spinal nerve ligation model of neuropathic pain assessed as reversal of allodynia at 10 mg/kg, po after 2 hrs; type: functional
hERG (KCNH2) = hERG (KCNH2) (Homo sapiens, UniProt Q12809); assay: Inhibition of MK-0499 binding to human ERG at 10 uM; details: probe MK-0499
hERG (KCNH2), sequence (Q12809 whole entry): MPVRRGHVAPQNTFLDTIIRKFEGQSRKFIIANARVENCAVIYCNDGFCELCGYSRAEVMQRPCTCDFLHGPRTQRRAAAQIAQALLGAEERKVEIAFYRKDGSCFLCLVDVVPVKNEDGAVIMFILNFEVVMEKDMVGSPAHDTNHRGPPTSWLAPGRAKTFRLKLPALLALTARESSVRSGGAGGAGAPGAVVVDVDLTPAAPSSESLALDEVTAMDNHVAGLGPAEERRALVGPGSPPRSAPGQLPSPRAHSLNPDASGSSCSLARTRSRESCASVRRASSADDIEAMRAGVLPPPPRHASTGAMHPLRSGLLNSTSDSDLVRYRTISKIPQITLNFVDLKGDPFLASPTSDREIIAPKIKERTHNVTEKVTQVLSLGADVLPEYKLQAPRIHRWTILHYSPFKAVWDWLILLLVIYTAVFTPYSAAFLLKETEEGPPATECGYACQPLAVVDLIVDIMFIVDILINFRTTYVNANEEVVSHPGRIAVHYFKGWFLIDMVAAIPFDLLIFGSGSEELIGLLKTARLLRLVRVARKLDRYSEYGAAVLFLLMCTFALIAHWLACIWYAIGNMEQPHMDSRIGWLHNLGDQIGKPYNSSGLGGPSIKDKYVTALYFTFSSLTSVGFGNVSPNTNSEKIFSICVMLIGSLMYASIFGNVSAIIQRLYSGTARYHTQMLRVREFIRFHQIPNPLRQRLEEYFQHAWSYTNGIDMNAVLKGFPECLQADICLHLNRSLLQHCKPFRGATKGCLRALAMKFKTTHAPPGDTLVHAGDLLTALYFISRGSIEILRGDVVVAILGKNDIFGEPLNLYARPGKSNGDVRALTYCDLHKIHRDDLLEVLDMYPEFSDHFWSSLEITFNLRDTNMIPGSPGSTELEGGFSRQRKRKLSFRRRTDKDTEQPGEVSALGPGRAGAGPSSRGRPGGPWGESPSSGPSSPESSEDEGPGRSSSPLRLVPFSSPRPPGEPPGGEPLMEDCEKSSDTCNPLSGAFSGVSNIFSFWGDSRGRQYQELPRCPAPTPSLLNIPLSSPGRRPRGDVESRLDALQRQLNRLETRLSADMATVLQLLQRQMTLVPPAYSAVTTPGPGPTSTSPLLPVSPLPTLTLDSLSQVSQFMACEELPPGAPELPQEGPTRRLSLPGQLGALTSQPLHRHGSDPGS

[3] = target: T1, Sodium channel protein type 9 subunit alpha (Homo sapiens, UniProt Q15858); assay: Inhibition of human Nav1.7 by VIPR assay
Target sequence in this assay (Q15858 whole entry): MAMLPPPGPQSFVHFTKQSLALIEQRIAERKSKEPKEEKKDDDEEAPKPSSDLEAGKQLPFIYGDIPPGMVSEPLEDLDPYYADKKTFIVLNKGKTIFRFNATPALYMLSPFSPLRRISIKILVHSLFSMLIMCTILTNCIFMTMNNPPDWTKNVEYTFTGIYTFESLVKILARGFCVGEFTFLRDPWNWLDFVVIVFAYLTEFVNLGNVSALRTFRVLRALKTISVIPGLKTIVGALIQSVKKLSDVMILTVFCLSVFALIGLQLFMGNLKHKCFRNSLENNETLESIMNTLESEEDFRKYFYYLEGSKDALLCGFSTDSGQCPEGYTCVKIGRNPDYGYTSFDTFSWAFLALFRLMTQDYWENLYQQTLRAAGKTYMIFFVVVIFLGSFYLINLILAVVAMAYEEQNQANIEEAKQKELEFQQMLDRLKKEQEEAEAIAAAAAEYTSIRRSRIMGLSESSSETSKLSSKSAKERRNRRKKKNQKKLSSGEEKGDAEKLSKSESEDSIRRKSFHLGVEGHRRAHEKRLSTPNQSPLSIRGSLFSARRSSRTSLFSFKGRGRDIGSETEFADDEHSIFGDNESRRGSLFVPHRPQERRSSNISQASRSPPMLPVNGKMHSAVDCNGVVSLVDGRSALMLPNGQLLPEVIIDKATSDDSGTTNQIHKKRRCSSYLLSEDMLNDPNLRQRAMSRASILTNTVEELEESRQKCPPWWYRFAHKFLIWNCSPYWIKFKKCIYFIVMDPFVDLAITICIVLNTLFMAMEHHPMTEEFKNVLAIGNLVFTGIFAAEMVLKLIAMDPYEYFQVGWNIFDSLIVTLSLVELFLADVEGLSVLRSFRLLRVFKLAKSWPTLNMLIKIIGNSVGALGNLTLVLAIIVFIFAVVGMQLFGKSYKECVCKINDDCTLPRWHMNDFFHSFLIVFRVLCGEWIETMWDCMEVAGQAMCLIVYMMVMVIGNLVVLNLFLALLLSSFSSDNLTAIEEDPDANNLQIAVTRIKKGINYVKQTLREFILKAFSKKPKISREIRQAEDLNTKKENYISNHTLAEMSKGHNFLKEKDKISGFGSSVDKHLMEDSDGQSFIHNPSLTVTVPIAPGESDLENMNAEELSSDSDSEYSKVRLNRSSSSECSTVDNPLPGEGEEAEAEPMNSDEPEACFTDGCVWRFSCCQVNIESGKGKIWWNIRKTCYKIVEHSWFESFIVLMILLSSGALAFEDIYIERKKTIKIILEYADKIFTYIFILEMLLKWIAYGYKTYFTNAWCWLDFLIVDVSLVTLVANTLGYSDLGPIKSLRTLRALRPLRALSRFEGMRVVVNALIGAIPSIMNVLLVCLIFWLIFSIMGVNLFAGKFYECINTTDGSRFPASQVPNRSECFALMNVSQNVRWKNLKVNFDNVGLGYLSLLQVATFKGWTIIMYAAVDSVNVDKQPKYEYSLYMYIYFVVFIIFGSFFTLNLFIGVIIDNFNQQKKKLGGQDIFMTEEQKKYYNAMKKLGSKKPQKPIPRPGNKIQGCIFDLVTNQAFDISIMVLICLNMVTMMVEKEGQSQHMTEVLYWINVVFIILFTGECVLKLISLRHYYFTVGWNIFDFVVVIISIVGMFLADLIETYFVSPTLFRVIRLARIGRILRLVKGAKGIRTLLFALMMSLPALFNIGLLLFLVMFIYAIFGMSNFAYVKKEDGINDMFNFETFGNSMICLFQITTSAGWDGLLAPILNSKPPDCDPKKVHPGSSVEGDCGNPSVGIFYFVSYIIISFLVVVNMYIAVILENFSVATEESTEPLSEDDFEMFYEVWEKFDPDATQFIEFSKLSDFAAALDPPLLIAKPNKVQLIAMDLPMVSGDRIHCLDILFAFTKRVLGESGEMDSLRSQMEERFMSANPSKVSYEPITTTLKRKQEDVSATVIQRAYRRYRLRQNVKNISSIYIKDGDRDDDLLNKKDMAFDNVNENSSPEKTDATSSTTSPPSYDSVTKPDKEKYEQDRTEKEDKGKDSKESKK

[4] = target: Sodium channel protein type 10 subunit alpha (Homo sapiens, UniProt Q9Y5Y9); assay: Inhibition of human Nav1.8 by VIPR assay
Sodium channel protein type 10 subunit alpha, sequence (Q9Y5Y9 whole entry): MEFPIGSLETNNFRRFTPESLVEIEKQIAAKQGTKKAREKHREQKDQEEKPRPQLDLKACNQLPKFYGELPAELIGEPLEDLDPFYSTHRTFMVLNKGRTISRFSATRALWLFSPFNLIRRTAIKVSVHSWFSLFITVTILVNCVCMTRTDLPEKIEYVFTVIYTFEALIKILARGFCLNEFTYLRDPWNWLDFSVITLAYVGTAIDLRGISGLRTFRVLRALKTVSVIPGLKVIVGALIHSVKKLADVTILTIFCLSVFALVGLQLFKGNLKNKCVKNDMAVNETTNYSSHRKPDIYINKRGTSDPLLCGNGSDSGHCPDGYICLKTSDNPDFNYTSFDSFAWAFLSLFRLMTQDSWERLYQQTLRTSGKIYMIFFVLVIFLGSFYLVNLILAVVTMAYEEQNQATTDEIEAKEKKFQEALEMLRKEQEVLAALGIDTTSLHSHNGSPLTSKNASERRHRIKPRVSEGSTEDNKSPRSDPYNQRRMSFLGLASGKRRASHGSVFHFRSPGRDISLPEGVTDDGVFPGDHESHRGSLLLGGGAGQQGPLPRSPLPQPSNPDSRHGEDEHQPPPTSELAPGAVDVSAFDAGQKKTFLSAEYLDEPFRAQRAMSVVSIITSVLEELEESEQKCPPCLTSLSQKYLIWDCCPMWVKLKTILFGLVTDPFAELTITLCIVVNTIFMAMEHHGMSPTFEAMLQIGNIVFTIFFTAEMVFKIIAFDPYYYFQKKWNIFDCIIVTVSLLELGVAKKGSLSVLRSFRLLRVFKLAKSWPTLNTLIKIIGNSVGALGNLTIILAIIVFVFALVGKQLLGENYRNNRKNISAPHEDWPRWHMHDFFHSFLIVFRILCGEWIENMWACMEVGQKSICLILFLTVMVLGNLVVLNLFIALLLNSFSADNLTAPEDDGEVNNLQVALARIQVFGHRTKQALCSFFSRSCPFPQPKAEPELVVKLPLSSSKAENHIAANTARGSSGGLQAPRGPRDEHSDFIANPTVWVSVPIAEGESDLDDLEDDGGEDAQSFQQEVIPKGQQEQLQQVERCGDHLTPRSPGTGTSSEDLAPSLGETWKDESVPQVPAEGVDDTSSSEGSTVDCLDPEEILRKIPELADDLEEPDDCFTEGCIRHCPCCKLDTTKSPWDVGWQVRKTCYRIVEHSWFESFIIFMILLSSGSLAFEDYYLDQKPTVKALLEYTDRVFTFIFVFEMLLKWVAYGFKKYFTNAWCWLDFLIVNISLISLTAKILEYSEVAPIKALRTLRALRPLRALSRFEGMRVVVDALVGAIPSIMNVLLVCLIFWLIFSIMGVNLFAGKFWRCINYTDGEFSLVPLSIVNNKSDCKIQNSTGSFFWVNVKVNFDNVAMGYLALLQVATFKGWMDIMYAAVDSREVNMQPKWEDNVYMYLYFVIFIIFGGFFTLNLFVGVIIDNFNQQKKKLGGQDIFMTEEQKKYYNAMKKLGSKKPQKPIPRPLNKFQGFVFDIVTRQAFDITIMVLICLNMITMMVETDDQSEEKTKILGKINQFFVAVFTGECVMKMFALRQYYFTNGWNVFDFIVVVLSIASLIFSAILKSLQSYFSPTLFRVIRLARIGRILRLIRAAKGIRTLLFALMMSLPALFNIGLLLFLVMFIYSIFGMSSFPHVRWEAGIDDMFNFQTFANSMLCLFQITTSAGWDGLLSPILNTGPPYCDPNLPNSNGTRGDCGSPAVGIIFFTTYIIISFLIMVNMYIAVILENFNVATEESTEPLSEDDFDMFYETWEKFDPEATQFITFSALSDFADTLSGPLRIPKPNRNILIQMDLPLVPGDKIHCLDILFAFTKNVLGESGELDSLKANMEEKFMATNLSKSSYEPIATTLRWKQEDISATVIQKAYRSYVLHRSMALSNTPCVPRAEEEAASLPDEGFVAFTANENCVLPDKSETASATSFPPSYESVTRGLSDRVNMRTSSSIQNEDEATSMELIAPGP

[5] = target: T1, Sodium channel protein type 9 subunit alpha; assay: Inhibition of human Nav1.7 at 10 uM by VIPR assay
Target sequence in this assay (Q15858 whole entry, looked up): as the sequence (Q15858 whole entry) above

Structure (SMILES)	Activity (Rattus norvegicus [1])	Activity (Rattus norvegicus [2])	inhibition at 10 µM (hERG (KCNH2))	IC50 [3]	IC50 [4]	Ki [3]	inhibition [5]
Cc1cc(C(N)=O)nn1-c1cccc(-c2ccccc2OC(F)(F)F)c1	11%	33%	69%	–	–	–	–
NC(=O)c1cc(C(N)=O)n(-c2cccc(-c3ccccc3C(F)(F)F)c2)n1	2%	9%	–	155 nM	915 nM	–	–
NC(=O)c1cn(-c2cccc(-c3ccccc3OC(F)(F)F)c2)nc1C(N)=O	8%	18%	1%	49 nM	–	–	–
NC(=O)c1cc(C(N)=O)n(-c2cccc(-c3cc(F)ccc3OCC(F)(F)C(F)(F)F)c2)n1	9%	25%	–	46 nM	149 nM	–	–
NC(=O)c1cc(C(N)=O)n(-c2cccc(-c3ccccc3OC(F)(F)F)c2)n1	19%	35%	21%	132 nM	554 nM	–	–
NC(=O)c1nc(-c2cccc(-c3ccccc3OC(F)(F)F)c2)cs1	–	–	–	–	–	230 nM	–
Cc1c(C(N)=O)c(C(N)=O)nn1-c1cccc(-c2ccccc2OC(F)(F)F)c1	8%	16%	15%	185 nM	–	–	–
NC(=O)c1cc(C(N)=O)n(-c2cccc(-c3ccc(F)cc3OCC(F)(F)C(F)(F)F)c2)n1	8%	28%	–	106 nM	–	–	–
CCOC(=O)c1cc(C(N)=O)nn1-c1cccc(-c2ccccc2OC(F)(F)F)c1	–	–	72%	10 nM	–	–	–
NC(=O)c1cc(C(N)=O)n(-c2cccc(-c3cccc(OC(F)(F)F)c3F)c2)n1	8%	28%	–	282 nM	1510 nM	–	–
NC(=O)c1cc(C(N)=O)n(-c2ccc(F)c(-c3ccccc3OC(F)(F)F)c2)n1	–	–	–	477 nM	–	–	–
NC(=O)c1cc(C(N)=O)n(-c2cccc(-c3c(C(F)(F)F)cccc3C(F)(F)F)c2)n1	–	–	–	715 nM	–	–	–
NC(=O)c1cc(C(N)=O)n(-c2cccc(-c3cccc(C(F)(F)F)c3OCC(F)(F)C(F)(F)F)c2)n1	8%	22%	–	147 nM	299 nM	–	–
CCNC(=O)c1cc(C(=O)NCC)n(-c2cccc(-c3ccccc3OC(F)(F)F)c2)n1	–	–	27%	–	–	–	1%
NC(=O)c1cc(C(N)=O)n(-c2cccc(-c3c(F)cccc3OC(F)(F)F)c2)n1	9%	15%	–	106 nM	802 nM	–	–
NC(=O)c1cc(C(N)=O)n(-c2cccc(-c3cccc(OC(F)(F)F)c3OCC(F)(F)C(F)(F)F)c2)n1	3%	6%	–	64 nM	203 nM	–	–
NC(=O)c1cc(C(N)=O)n(-c2cccc(-c3cccc(Cl)c3Cl)c2)n1	7%	15%	–	195 nM	–	–	–
NC(=O)c1cc(C(N)=O)n(-c2cccc(-c3cc(C(F)(F)F)ccc3OC(F)(F)F)c2)n1	6%	29%	–	325 nM	1180 nM	–	–
Cc1cc(C(N)=O)nn1-c1cccc(-c2ccc(C(F)(F)F)cc2C(F)(F)F)c1	–	–	–	–	–	340 nM	–
NC(=O)c1nn(-c2cccc(-c3ccccc3OC(F)(F)F)c2)c(C(N)=O)c1C(N)=O	–	–	49%	115 nM	–	–	–
CCNC(=O)c1cc(C(N)=O)nn1-c1cccc(-c2ccccc2OC(F)(F)F)c1	–	–	20%	29 nM	–	–	–

— ChEMBL document CHEMBL1629455, “Discovery of a novel class of biphenyl pyrazole sodium channel blockers for treatment of neuropathic pain” (Bioorg Med Chem Lett, 2010)
